Results: US7750017B2, “Heterocycles” (Bayer Schering Pharma Aktiengesellschaft, priority 2004, dated 2010)
Counter-ions that a name gives are not always drawn.

Key:
[1] = system: BT474 [human breast carcinoma, overexpressing HER2 (ErbB2)]; experiment: In vitro tumor cell proliferation assay (Cell Titer-Glo luminescent cell viability), BT474 cells; assay type: cell-based; conditions: BT-474, 72 h, 72 hours of drug exposure, Cell Titer-Glo readout, read-out: IC50, anti-proliferative activity in BT474 cells
[2] = system: A431 cells [human epidermoid carcinoma, overexpressing HER1 (EGFR, ErbB1)]; experiment: In vitro tumor cell proliferation assay (Cell Titer-Glo luminescent cell viability), A431 cells; assay type: cell-based; conditions: A-431, 72 h, 72 hours of drug exposure, Cell Titer-Glo readout, read-out: IC50, anti-proliferative activity in A431 cells

SMILES	IC50 [1]	IC50 [2]
O=C(Cc1ccc2c(c1)sc1ncnc(Nc3ccc(OCc4cscn4)c(Cl)c3)c12)NCCO [Example 141, 2-(4-{[3-chloro-4-(1,3-thiazol-4-ylmethoxy)phenyl]amino}[1]benzothieno[2,3-d]pyrimidin-7-yl)-N-(2-hydroxyethyl)acetamide]	≤ 5 µM	≤ 50 µM
CCOC(=O)Cc1ccc2c(c1)sc1ncnc(Nc3ccc(OCc4ccccn4)c(Cl)c3)c12 [Example 81, ethyl {4-[3-Chloro-4-(pyridin-2-ylmethoxy)-phenylamino]-benzo [4,5]thieno[2,3-d]pyrimidin-7-yl}-acetate trifluoroacetate]	≤ 5 µM	≤ 50 µM
CN(C)[C@H]1CCN(C(=O)Cc2ccc3c(c2)sc2ncnc(Nc4ccc(OCc5cscn5)c(Cl)c4)c23)C1 [Example 143, N-[3-chloro-4-(1,3-thiazol-4-ylmethoxy)phenyl]-7-{2-[(3S)-3-(dimethylamino)pyrrolidin-1-yl]-2-oxoethyl}[1]benzothieno[2,3-d] pyrimidin-4-amine]	≤ 0.5 µM	≤ 5 µM
O=C(O)CCc1ccc2c(c1)sc1ncnc(Nc3ccc(OCc4cccc(F)c4)c(Cl)c3)c12 [Example 65, 3-[4-({3-chloro-4-[(3-fluorobenzyl)oxy]phenyl}amino)[1]benzothieno[2,3-d]pyrimidin-7-yl]propanoic acid]	≤ 5 µM	≤ 50 µM
CN1CCN(C(=O)Cc2ccc3c(c2)sc2ncnc(Nc4ccc(OCc5ccccn5)c(Cl)c4)c23)CC1 [Example 96, N-[3-chloro-4-(pyridin-2-ylmethoxy)phenyl]-7-[2-(4-methylpiperazin-1-yl)-2-oxoethyl][1]benzothieno[2,3-d] pyrimidin-4-amine]	≤ 0.5 µM	≤ 50 µM
CCOC(=O)C(Oc1ccc2c(c1)sc1ncnc(Nc3ccc(OCc4cccc(F)c4)c(Cl)c3)c12)C(=O)OCC [Example 42, diethyl {[4-({3-chloro-4-[(3-fluorobenzyl)oxy]phenyl}amino)[1]benzothieno[2,3-d]pyrimidin-7-yl]oxy}malonate trifluoroacetate]	≤ 5 µM	≤ 50 µM
O=C(Cc1ccc2c(c1)sc1ncnc(Nc3ccc(OCc4cscn4)c(Cl)c3)c12)N1CCOCC1 [Example 137, N-[3-chloro-4-(1,3-thiazol-4-ylmethoxy)phenyl]-7-(2-morpholin-4-yl-2-oxoethyl)[1]benzothieno [2,3-d]pyrimidin-4-amine]	≤ 5 µM	≤ 50 µM
CN(C)[C@H]1CCN(C(=O)/C=C/c2ccc3c(c2)sc2ncnc(Nc4ccc(OCc5cccc(F)c5)c(Cl)c4)c23)C1 [Example 52, N-{3-chloro-4-[(3-fluorobenzyl)oxy]phenyl}-7-{(1E)-3-[(3S)-3-(dimethylamino)pyrrolidin-1-yl]-3-oxoprop-1-en-1-yl}[1]benzothieno[2,3-d] pyrimidin-4-amine]	≤ 5 µM	≤ 5 µM
Fc1cccc(COc2ccc(Nc3ncnc4sc5cc(OCCn6cccc6)ccc5c34)cc2Cl)c1 [Example 40, N-{3-chloro-4-[(3-fluorobenzyl)oxy]phenyl}-7-[2-(1H-pyrrol-1-yl)ethoxy][1] benzothieno[2,3-d]pyrimidin-4-amine]	≤ 5 µM	≤ 50 µM

Other lines, results leading:

IC50 [1]	IC50 [2]	SMILES
≤ 5 µM	≤ 50 µM	CCOC(=O)C(C(=O)OCC)c1ccc2c(c1)sc1ncnc(Nc3ccc(OCc4cccc(F)c4)c(Cl)c3)c12 [Example 45, 2-{4-[3-Chloro-4-(3-fluoro-benzyloxy)-phenylamino]-benzo[4,5]thieno[2,3-d]pyrimidin-7-yl}-malonic acid diethyl ester]
≤ 5 µM	≤ 5 µM	CN(C)CCNC(=O)CCc1ccc2c(c1)sc1ncnc(Nc3ccc(OCc4cccc(F)c4)c(Cl)c3)c12 [Example 70, 3-[4-({3-chloro-4-[(3-fluorobenzyl)oxy]phenyl}amino)[1]benzothieno[2,3-d]pyrimidin-7-yl]-N-[2-(dimethylamino)ethyl] propanamide]
≤ 0.5 µM	≤ 50 µM	OCC(CO)Oc1ccc2c(c1)sc1ncnc(Nc3ccc(OCc4cccc(F)c4)c(Cl)c3)c12 [Example 43, 2-{[4-({3-chloro-4-[(3-fluorobenzyl)oxy]phenyl}amino) [1]benzothieno[2,3-d]pyrimidin-7-yl]oxy}propane-1,3-diol trifluoroacetate (salt)]
≤ 5 µM	≤ 50 µM	CN(C)CCNC(=O)/C=C/c1ccc2c(c1)sc1ncnc(Nc3ccc(OCc4cccc(F)c4)c(Cl)c3)c12 [Example 54, (2E)-3-[4-({3-chloro-4-[(3-fluorobenzyl)oxy]phenyl}amino) [1]benzothieno[2,3-d]pyrimidin-7-yl]-N-[2-(dimethylamino)ethyl]acrylamide]
≤ 5 µM	≤ 5 µM	CN(C)[C@H]1CCN(CCc2ccc3c(c2)sc2ncnc(Nc4ccc(OCc5cccc(F)c5)c(Cl)c4)c23)C1 [Example 24, N-{3-chloro-4-[(3-fluorobenzyl)oxy]phenyl}-7-{2-[3-(dimethylamino)pyrrolidin-1-yl]ethyl}[1]benzothieno[2,3-d] pyrimidin-4-amine]
≤ 5 µM	≤ 50 µM	O=C(Cc1ccc2c(c1)sc1ncnc(Nc3ccc(OCc4ccccn4)c(Cl)c3)c12)N1CCCC1 [Example 99, N-[3-chloro-4-(pyridin-2-ylmethoxy)phenyl]-7-(2-oxo-2-pyrrolidin-1-ylethyl)[1]benzothieno [2,3-d]pyrimidin-4-amine]
≤ 0.5 µM	≤ 50 µM	CS(=O)(=O)CCNC(=O)Cc1ccc2c(c1)sc1ncnc(Nc3ccc(OCc4ccccn4)c(Cl)c3)c12 [Example 102, 2-(4-{[3-chloro-4-(pyridin-2-ylmethoxy)phenyl]amino}[1]benzothieno[2,3-d]pyrimidin-7-yl)-N-[2-(methylsulfonyl)ethyl] acetamide]
≤ 0.5 µM	≤ 5 µM	OC[C@H](O)COc1ccc2c(c1)sc1ncnc(Nc3ccc(OCc4ccccn4)c(Cl)c3)c12 [Example 112, (2S)-3-[(4-{[3-chloro-4-(pyridin-2-ylmethoxy)phenyl]amino}[1]benzothieno[2,3-d]pyrimidin-7-yl)oxy]propane-1,2-diol]
≤ 0.5 µM	≤ 5 µM	O=C(Cc1ccc2c(c1)sc1ncnc(Nc3ccc(OCc4cccc(F)c4)c(Cl)c3)c12)N1CCNCC1 [Example 31, N-{3-chloro-4-[(3-fluorobenzyl)oxy]phenyl}-7-(2-oxo-2-piperazin-1-ylethyl)[1] benzothieno[2,3-d]pyrimidin-4-amine hydrochloride]
≤ 0.5 µM	≤ 50 µM	OCCc1ccc2c(c1)sc1ncnc(Nc3ccc4c(ccn4Cc4ccccc4)c3)c12 [Example 133, 2-{4-[(1-benzyl-1H-indol-5-yl)amino][1]benzothieno[2,3-d]pyrimidin-7-yl}ethanol]
≤ 0.5 µM	≤ 5 µM	Fc1cccc(Cn2ncc3cc(Nc4ncnc5sc6cc(CCN7CCOCC7)ccc6c45)ccc32)c1 [Example 129, N-[1-(3-fluorobenzyl)-1H-indazol-5-yl]-7-(2-morpholin-4-ylethyl) [1]benzothieno[2,3-d]pyrimidin-4-amine]
≤ 0.5 µM	≤ 50 µM	C=Cc1ccc2c(c1)sc1ncnc(Nc3ccc(OCc4cccc(F)c4)c(Cl)c3)c12 [Example 14, N-{3-chloro-4-[(3-fluorobenzyl)oxy]phenyl}-7-vinyl[1]benzothieno[2,3-d]pyrimidin-4-amine]
